≈ marks a conversion by molar mass, not a printed value.
Assays:
Type in all cases: functional
[1] = tested on: Staphylococcus aureus; assay: Compound tested in vitro for antibacterial activity against Staphylococcus aureus (S18713)
[2] = tested on: Enterococcus faecalis; assay: Compound tested in vitro for antibacterial activity against Streptococcus faecalis(MGH-2)
[3] = tested on: Staphylococcus aureus; assay: Compound tested in vitro for antibacterial activity against Staphylococcus aureus(UC-76)

Structure (SMILES) | MIC [1] [µg/mL] | MIC [2] [µg/mL] | MIC [3] [µg/mL]
Nc1nc(N)c2nc(Sc3cc(Cl)c(Cl)cc3Cl)cnc2n1 | > 25 | 5 (≈ 13.4 µM) | > 25
Nc1nc(N)c2nc(Sc3ccc4ccccc4c3)cnc2n1 | > 25 | 1.5 (≈ 4.68 µM) | > 25
Nc1nc(N)c2nc(Sc3cccc(C(F)(F)F)c3)cnc2n1 | < 0.25 | < 0.25 | < 0.25

Continued, values first:

MIC [1] [µg/mL] | MIC [2] [µg/mL] | MIC [3] [µg/mL] | Structure (SMILES)
2 (≈ 6.66 µM) | < 0.25 | 2 (≈ 6.66 µM) | COc1ccc(Sc2cnc3nc(N)nc(N)c3n2)cc1
1.5 (≈ 4.68 µM) | < 0.25 | < 0.25 | Nc1nc(N)c2nc(Sc3cccc4ccccc34)cnc2n1
> 25 | 2 (≈ 5.9 µM) | > 25 | Nc1nc(N)c2nc(Sc3ccc(Cl)c(Cl)c3)cnc2n1
> 25 | < 0.25 | > 25 | CN(C)/C=N\c1nc(/N=C/N(C)C)nc2ncc(Sc3ccc(Cl)c(Cl)c3)nc12
